Values quoted from earlier work, collected in patent publication US20180243247A1, “DRUG COMBINATIONS FOR CEREBROVASCULAR DISEASE” (priority 2017, published 2018).
Read-outs that look alike come from different tables or passages of the source.

Experiments:
[1] = system: rodent models of CNS ischemia
[2] = system: AMPA receptor

Row | SMILES | neuroprotection ([1]; dose concentration of 0.1 mg/kg) | neuroprotection ([1]; lower doses than 0.1 mg/kg, monotherapy) | neuroprotective effects ([1]; rodent models of CNS ischemia) | calcium influx through the AMPA receptor [2]
1 | C=CC[C@@H]1/C=C(\C)C[C@H](C)C[C@H](OC)[C@H]2O[C@@](O)(C(=O)C(=O)N3CCCC[C@H]3C(=O)O[C@H](/C(C)=C/[C@@H]3CC[C@@H](O)[C@H](OC)C3)[C@H](C)[C@@H](O)CC1=O)[C@H](C)C[C@@H]2OC [Tacrolimus] | neuroprotective | not neuroprotective | exhibits neuroprotective effects | 
2 | NCCCNCCCCNCCC(=O)NCCCCCNC(=O)[C@H](CC(N)=O)NC(=O)Cc1ccc(O)cc1O [JSTX-3] |  |  |  | dramatically reduces calcium influx
